# Target: T1, human TREM2 (Homo sapiens, UniProt Q9NZC2)
# T1 construct: expressed in transfected cells; host or cells: HEK293T
# Test: TREM2 agonist potency by cellular phosphorylation of Syk (AlphaLisa) in HEK293T-hTREM2 cells
# Format: cell-based
# Conditions: HEK293 cells expressing human TREM2 and DAP12, Table D
# Description: In Vitro Measurement of Triggering Receptor Expressed on Myeloid Cells 2 Activity Using Cellular Phosphorylation of Spleen Tyrosine Kinase (“Syk”) Assays
# Measurement of TREM2 agonist potency was done using a HEK cell line expressing human TREM2 and DAP12 (HEK293T-hTREM2 cells). Binding of small molecules to, and activation of, TREM2 increases the phosphorylation of Syk. The resultant levels of Syk phosphorylation are measured using a commercial AlphaLisa reagent kit. To perform the assay, HEK-hTREM2 cells were plated at 14,000 cells per well in a 384 well plate, in 25 μL of complete growth media and incubated at 37° C., 5% CO2 for 20-24 hours.
# Prior to the assay, test compounds were diluted in the 384 well plates in assay buffer and allowed to equilibrate for 30 minutes. Growth media was removed from cell plates by inversion on blotting paper, and 25 μL of test articles in assay buffer was added to cells. Cells were incubated for 45 minutes at room temperature. After 45 minutes, assay buffer was removed and 10 μL of lysis buffer was added. Plates were shaken for 20 minutes at 350 RPM at room temperature. After complete lysis, AlphaLisa reagents were added to the lysate, and fluourescence intensity was measured using a Perkin Elmer Envision plate reader. Intensities were used to generate a standard curve, and % activation was calculated. Curve fitting was performed using Prism v9 software, log(agonist) vs response-variable slope (four parameters), and EC50s were calculated from the curve fit.
# This assay may be used to test any of the compounds described herein to assess and characterize a compound's ability to act as an agonist of TREM2.
# T1 sequence (Q9NZC2 19-230): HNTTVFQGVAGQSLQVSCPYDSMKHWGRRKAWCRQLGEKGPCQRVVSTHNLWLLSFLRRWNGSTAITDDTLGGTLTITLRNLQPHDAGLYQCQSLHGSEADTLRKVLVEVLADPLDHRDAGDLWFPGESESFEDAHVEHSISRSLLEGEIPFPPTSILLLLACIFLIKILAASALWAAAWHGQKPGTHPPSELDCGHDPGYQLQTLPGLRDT
# T1 sequence (O43914 22-113 partner): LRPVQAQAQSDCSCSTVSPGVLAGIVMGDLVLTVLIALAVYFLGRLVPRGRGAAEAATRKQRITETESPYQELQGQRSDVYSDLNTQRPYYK
row,EC50,SMILES
1,3000 to 100000 nM,"[2H]C([2H])([2H])c1nc2nc([C@@H]3CCO[C@H](c4cnn(C([2H])([2H])[2H])c4)C3)nc(-c3ccc(C)cc3)c2nc1C([2H])([2H])[2H] [Example 172, 6,7-bis(methyl-d3)-2-((2S,4R)-2-(1-(methyl-d3)-1H-pyrazol-4-yl)tetrahydro-2H-pyran-4-yl)-4-(p-tolyl)pteridine]"
2,3000 to 100000 nM,"Cc1nc2cc([C@@H]3CCO[C@@H](c4cnn(C5CC5)c4)C3)cc(-c3ccc(Cl)cc3F)c2nc1C [Example 230, 5-(4-chloro-2-fluorophenyl)-7-((2R,4R)-2-(1-cyclopropyl-1H-pyrazol-4-yl)tetrahydro-2H-pyran-4-yl)-2,3-dimethylquinoxaline]"
3,50 to 500 nM,"Cc1nc2cc([C@H]3CCO[C@@H](c4cnn(C5CC5)c4)C3)cc(-c3ccc(F)cc3Cl)c2nc1C [Example 229, 5-(2-chloro-4-fluorophenyl)-7-((2R,4S)-2-(1-cyclopropyl-1H-pyrazol-4-yl)tetrahydro-2H-pyran-4-yl)-2,3-dimethylquinoxaline]"
4,500 to 3000 nM,"Cc1nc2nc([C@H]3CCO[C@@H](c4cnn(C5CC5)c4)C3)nc(C3C[C@@H](F)[C@@H](F)C3)c2nc1C (stereo partly drawn) [Example 245, 2-((2R,4S)-2-(1-cyclopropyl-1H-pyrazol-4-yl)tetrahydro-2H-pyran-4-yl)-4-((3R,4S)-3,4-difluorocyclopentyl)-6,7-dimethylpteridine]"
5,< 50 nM,"Cc1nc2nc([C@H]3C[C@@H](C)O[C@@H](c4cnn(C5CC5)c4)C3)nc(-c3ccc(C(F)(F)F)cc3)c2nc1C [Example 159, 2-((2R,4S,6R)-2-(1-cyclopropyl-1H-pyrazol-4-yl)-6-methyltetrahydro-2H-pyran-4-yl)-6,7-dimethyl-4-(4-(trifluoromethyl)phenyl) pteridine]"
6,< 50 nM,"Cc1nc2nc([C@H]3CCO[C@@H](c4cnn(CCF)c4)C3)nc(-c3ccc(F)cc3F)c2nc1C [Example 150, 4-(2,4-difluorophenyl)-2-((2R,4S)-2-(1-(2-fluoroethyl)-1H-pyrazol-4-yl)tetrahydro-2H-pyran-4-yl)-6,7-dimethylpteridine]"
7,50 to 500 nM,"COc1ccc([C@@H]2C[C@H](c3nc(-c4ccc(F)cc4F)c4nc(C)c(C)nc4n3)CCO2)cn1 [Example 162, 4-(2,4-difluorophenyl)-2-((2S,4R)-2-(6-methoxypyridin-3-yl)tetrahydro-2H-pyran-4-yl)-6,7-dimethylpteridine]"
8,50 to 500 nM,"Cc1nc2nc([C@@H]3CCO[C@@H](c4cnn(C5CC5)c4)C3)cc(-c3ccc(Cl)cc3F)c2nc1C [Example 223, 8-(4-chloro-2-fluorophenyl)-6-((2R,4R)-2-(1-cyclopropyl-1H-pyrazol-4-yl)tetrahydro-2H-pyran-4-yl)-2,3-dimethylpyrido[2,3-b]pyrazine]"
9,< 50 nM,"[2H]C([2H])([2H])c1nc2nc([C@@H]3CCO[C@H](c4ccnc(C)c4)C3)nc(-c3ccc(Cl)c(F)c3F)c2nc1C([2H])([2H])[2H] [Example 136, 4-(4-chloro-2,3-difluorophenyl)-6,7-bis(methyl-d3)-2-((2S,4R)-2-(2-methylpyridin-4-yl)tetrahydro-2H-pyran-4-yl)pteridine]"
10,< 50 nM,Cc1nc2nc(N3C[C@@H](C)O[C@@H](c4cnn(C5CC5)c4)C3)nc(-c3ccnc(C(F)(F)F)c3)c2nc1C [Example 178]
11,50 to 500 nM,"Cc1nc2nc(N3CCN(C)[C@@H](c4cnn(C5CC5)c4)C3)nc(-c3ccc(Cl)cc3F)c2nc1C [Example 206, (S)-4-(4-chloro-2-fluorophenyl)-2-(3-(1-cyclopropyl-1H-pyrazol-4-yl)-4-methylpiperazin-1-yl)-6,7-dimethylpteridine]"
12,50 to 500 nM,"COc1ccc([C@@H]2C[C@H](c3nc(C45CC(C(F)(F)F)(C4)C5)c4nc(C)c(C)nc4n3)CCO2)cn1 [Example 142, 2-((2S,4R)-2-(6-methoxypyridin-3-yl)tetrahydro-2H-pyran-4-yl)-6,7-dimethyl-4-(3-(trifluoromethyl)bicyclo[1.1.1]pentan-1-yl)pteridine]"
13,50 to 500 nM,Cc1ccc2c(-c3ccc(F)cc3F)cc([C@H]3CCO[C@@H](c4cnn(C5CC5)c4)C3)nc2n1 [Example 231]
14,< 50 nM,"Cc1cnc2c(C34CC(C(F)(F)F)(C3)C4)nc(N3C[C@@H](C)O[C@@H](c4cnn(C5CC5)c4)C3)nc2n1 (racemic) [Example 49, 2-(1-cyclopropyl-1H-pyrazol-4-yl)-6-methyl-4-(7-methyl-4-(3-(trifluoromethyl)bicyclo[1.1.1]pentan-1-yl)pteridin-2-yl)morpholine]"
15,< 50 nM,"[2H]C1([2H])C[C@@H](c2nc(-c3ccc(F)cc3F)c3nc(C)c(C)nc3n2)C[C@@H](c2cnn(C3CC3)c2)O1 (single isomer, unassigned) [Example 170]"
16,< 50 nM,"Cc1nc2nc(N3CCN(C)[C@H](c4cnn(C5CC5)c4)C3)nc(-c3ccc(Cl)cc3F)c2nc1C [Example 207, (R)-4-(4-chloro-2-fluorophenyl)-2-(3-(1-cyclopropyl-1H-pyrazol-4-yl)-4-methylpiperazin-1-yl)-6,7-dimethylpteridine]"
17,< 50 nM,"[2H][C@]1(c2cnn(C3CC3)c2)C[C@@H](c2nc(-c3ccc(F)cc3F)c3nc(C)c(C)nc3n2)CCO1 [Example 182, 2-((2R,4S)-2-(1-cyclopropyl-1H-pyrazol-4-yl)tetrahydro-2H-pyran-4-yl-2-d)-4-(2,4-difluorophenyl)-6,7-dimethylpteridine]"
18,3000 to 100000 nM,Cc1nc2nc([C@H]3CCO[C@@H](c4cccn(C)c4=O)C3)nc(-c3ccc(F)cc3F)c2nc1C [Example 203]

# Same assay, conditions: HEK293 cells expressing human TREM2 and DAP12, Table D-2
row,EC50,SMILES
1,500 to 3000 nM,"Cc1nc2nc(-c3ccc(Cl)cc3F)cc(N3C[C@@H](C)O[C@@H](c4cnn(C5CC5)c4)C3)c2nc1C [Example I-1081, (2S,6R)-4-[6-(4-chloro-2-fluoro-phenyl)-2,3-dimethyl-pyrido[2,3-b]pyrazin-8-yl]-2-(1-cyclopropylpyrazol-4-yl)-6-methyl-morpholine]"
2,500 to 3000 nM,"Cc1nc2nc([C@H]3CC(CO)O[C@@H](c4cnn(C5CC5)c4)C3)nc(-c3ccc(F)cc3F)c2nc1C (stereo in doubt) [Example I-1624, [(2S,4R,6R)-6-(1-cyclopropylpyrazol-4-yl)-4-[4-(2,4-difluorophenyl)-6,7-dimethyl-pteridin-2-yl]tetrahydropyran-2-yl]methanol]"
3,3000 to 100000 nM,"Cc1nc2c(-c3ccc(C(F)(F)F)cc3F)cn([C@H]3CCO[C@@H](c4cnn(C5CC5)c4)C3)c(=O)c2nc1C [Example I-1567, 6-[(2R,4S)-2-(1-cyclopropyl-1H-pyrazol-4-yl)tetrahydro-2H-pyran-4-yl]-8-[2-fluoro-4-(trifluoromethyl)phenyl]-2,3-dimethylpyrido[3,4-b]pyrazin-5(6H)-one]"
4,< 50 nM,"Cc1nc2nc(N3C[C@@H](C)O[C@@H](c4cnn(C(F)F)c4)C3)nc(-c3ccc(F)cc3F)c2nc1C [Example I-1472, (2S,6R)-2-[1-(difluoromethyl)pyrazol-4-yl]-4-[4-(2,4-difluorophenyl)-6,7-dimethyl-pteridin-2-yl]-6-methyl-morpholine]"
5,< 50 nM,"[2H]C([2H])([2H])c1nc2nc(N3C[C@@H](C)O[C@@H](c4cnn(C5CC5)c4)C3)nc(-c3ccc(F)cc3F)c2nc1C([2H])([2H])[2H] [Example I-1129, (2S,6R)-2-(1-cyclopropylpyrazol-4-yl)-4-[4-(2,4-difluorophenyl)-6,7-bis(trideuteriomethyl)pteridin-2-yl]-6-methyl-morpholine]"
6,< 50 nM,Cc1nc2nc(N3C[C@@H](C)O[C@@H](c4cnn(C)c4)C3)nc(-c3ccc(F)cc3F)c2nc1C [Example I-1633]
7,< 50 nM,"Cc1nc2nc(N3C[C@@H](C)O[C@@H](c4cnn(C5CC5)c4)C3)nc([C@H]3C[C@H](C(F)(F)F)C3)c2nc1C [Example I-1365, (2S,6R)-2-(1-cyclopropylpyrazol-4-yl)-4-[6,7-dimethyl-4-[3-(trifluoromethyl)cyclobutyl]pteridin-2-yl]-6-methyl-morpholine]"
8,50 to 500 nM,"Cc1nc2nc([C@H]3CCO[C@@H](c4cnn(C5CC5)c4)C3)nc(-c3ccc(OC(F)(F)F)cc3F)c2nc1C [Example I-1313, 2-((2R,4S)-2-(1-cyclopropyl-1H-pyrazol-4-yl)tetrahydro-2H-pyran-4-yl)-4-(2-fluoro-4-(trifluoromethoxy)phenyl)-6,7-dimethylpteridine]"
9,< 50 nM,"Cc1nc2nc(N3C[C@@H](C)O[C@@H](c4cnn(C5CC5)c4F)C3)nc(-c3ccc(F)cc3F)c2nc1C [Example I-1401, (2S,6R)-2-(1-cyclopropyl-5-fluoro-pyrazol-4-yl)-4-[4-(2,4-difluorophenyl)-6,7-dimethyl-pteridin-2-yl]-6-methyl-morpholine]"
10,< 50 nM,"Cc1nc2nc([C@H]3CCO[C@@H](c4cnn(C5CC5)c4)C3)nc(-c3ccc4c(c3)CCC4)c2nc1C (stereo in doubt) [Example I-1170, 4-indan-5-yl-6,7-dimethyl-2-[(2R,4S)-2-(1-cyclopropylpyrazol-4-yl)tetrahydropyran-4-yl]pteridine]"

# Reference: patent US20240309003A1, “HETEROCYCLIC COMPOUNDS AS TRIGGERING RECEPTOR EXPRESSED ON MYELOID CELLS 2 AGONISTS AND METHODS OF USE” (Vigil Neuroscience, Inc., priority 2021, published 2024)
